A short description of series [1]: Bulk / drug substance stability (HPLC). In kind it is physicochemical. Here is the method:
At four weeks, one or two degradation peaks became detectable at 40° C. and 50° C., but the level of each impurity peak was still less than 0.02%.

The target of a further series is VLA-4 (Homo sapiens, UniProt P05556+P13612). In words: CS1 Cell Adhesion Assay, Jurkat cells to CS1/BSA conjugate. More on the design: endogenous in cells; host or cells: Jurkat (human T cell line). It is filed as cell-based. The note with it: in the presence of Mn+2. Here is the method: The peptide NH2-cysteine-tyrosine-CS-1 was synthesized and coupled to BSA-SMCC (SMCC is a heterobifunctional crosslinker which reacts with free amino groups on BSA and the sole cysteine of the synthetic peptide) at a CS1/BSA ratio of 10:1. Wells were coated overnight with 100 μL of conjugate diluted to a final concentration of 1 ug/ml. The next day the wells were blocked with BSA in PBS for one hour and then washed three times.
Chain of VLA-4 (P13612 34-1032): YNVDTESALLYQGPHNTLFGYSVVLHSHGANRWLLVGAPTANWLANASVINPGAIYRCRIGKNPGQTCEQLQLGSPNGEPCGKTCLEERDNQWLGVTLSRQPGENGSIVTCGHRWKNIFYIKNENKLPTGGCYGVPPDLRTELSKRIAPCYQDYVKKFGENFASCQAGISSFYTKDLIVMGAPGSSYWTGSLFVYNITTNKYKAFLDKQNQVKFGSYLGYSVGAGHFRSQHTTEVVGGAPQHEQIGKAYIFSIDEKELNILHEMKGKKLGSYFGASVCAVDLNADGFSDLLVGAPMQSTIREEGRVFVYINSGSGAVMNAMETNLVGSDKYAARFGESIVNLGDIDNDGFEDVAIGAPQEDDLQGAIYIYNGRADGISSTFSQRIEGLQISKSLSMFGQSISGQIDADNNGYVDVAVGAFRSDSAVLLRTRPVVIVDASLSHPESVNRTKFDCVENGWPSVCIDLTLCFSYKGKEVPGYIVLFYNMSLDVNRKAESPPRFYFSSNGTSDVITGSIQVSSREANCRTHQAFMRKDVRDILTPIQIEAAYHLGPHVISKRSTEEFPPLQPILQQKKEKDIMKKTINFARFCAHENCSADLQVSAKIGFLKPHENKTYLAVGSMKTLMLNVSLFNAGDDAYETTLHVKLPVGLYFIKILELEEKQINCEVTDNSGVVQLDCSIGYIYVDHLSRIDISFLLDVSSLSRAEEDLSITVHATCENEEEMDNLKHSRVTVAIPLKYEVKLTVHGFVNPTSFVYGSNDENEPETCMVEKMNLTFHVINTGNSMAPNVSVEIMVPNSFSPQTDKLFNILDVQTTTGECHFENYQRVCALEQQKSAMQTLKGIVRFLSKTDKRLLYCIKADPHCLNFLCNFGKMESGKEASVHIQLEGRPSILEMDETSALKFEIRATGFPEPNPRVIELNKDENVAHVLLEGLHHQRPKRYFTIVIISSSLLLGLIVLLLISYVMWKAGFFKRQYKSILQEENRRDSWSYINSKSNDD
Chain of VLA-4 (P05556 21-798): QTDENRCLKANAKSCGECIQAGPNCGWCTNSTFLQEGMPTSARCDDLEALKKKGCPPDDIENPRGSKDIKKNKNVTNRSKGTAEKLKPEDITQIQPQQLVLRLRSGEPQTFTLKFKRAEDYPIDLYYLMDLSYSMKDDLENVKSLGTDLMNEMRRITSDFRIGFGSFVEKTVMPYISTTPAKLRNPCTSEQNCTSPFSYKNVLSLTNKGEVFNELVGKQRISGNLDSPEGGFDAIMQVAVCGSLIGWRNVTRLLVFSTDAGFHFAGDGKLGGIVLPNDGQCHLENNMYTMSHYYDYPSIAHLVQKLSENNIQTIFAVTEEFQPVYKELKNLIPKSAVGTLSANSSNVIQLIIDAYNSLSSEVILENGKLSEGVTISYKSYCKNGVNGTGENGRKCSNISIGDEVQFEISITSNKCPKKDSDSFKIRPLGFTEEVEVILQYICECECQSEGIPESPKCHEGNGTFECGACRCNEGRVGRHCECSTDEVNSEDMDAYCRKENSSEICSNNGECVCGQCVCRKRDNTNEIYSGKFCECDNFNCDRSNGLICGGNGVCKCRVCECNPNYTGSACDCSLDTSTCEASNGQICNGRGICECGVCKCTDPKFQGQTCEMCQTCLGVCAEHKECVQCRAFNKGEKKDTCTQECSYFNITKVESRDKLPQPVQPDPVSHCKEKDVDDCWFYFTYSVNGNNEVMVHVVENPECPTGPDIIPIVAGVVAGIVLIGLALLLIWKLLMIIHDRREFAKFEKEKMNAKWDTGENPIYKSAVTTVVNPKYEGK
The human T cell line, Jurkat, was labeled with 2 μM BCECF-AM, a fluorescent dye (2′, 7′, bis-(2-carboxyethyl)-5 and -6) carboxy fluorescein acetoxymethyl ester (Molecular Probes Inc., Eugene, Oregon; catalog #B-1150) that is internalized and deesterified thus trapping the dye within live cells. Jurkat cells (1×10^5 cells/well) in buffer containing 1 mM Mn^+2 were added to the coated plates in the presence of three-fold serial dilutions of inhibitor. Each concentration was assayed in duplicate. After 30 minutes at room temperature, the plates were inverted and washed three times or until no cells were adherent to control wells coated with BSA alone. CS1-adherent cells were quantitated in a Cytofluor fluorescent platereader using an excitation wavelength of 485 nm and an emission wavelength of 530 nm.
Cells adhered to CS1/BSA in the absence of compound served as the 0% inhibition control whereas cells adhering to BSA alone served as the 100% inhibition control. IC50's were calculated using Deltagraph software, version 5.

On to `Cc1ccccc1NC(=O)Nc1ccc(CC(=O)N2CCC[C@@H]2C(=O)NC(C)CC(=O)O)cc1` (stereo partly drawn) [oMePUPA-V], for which, in series [1] (four weeks, 40° C. and 50° C.), the “level of each impurity (degradation) peak” value was “less than 0.02%”. The “degradation on storage (in words)” value in series [1] (two weeks, 40° C. closed vial, 50° C. closed vial, 25° C., RH 60%, 40° C., RH 75%) was “No degradation”. Consider `O=C(O)CN(CCN(CC(=O)O)CC(=O)O)CC(=O)O` [EDTA, reference compound], for which the “blocking of Jurkat cell adhesion to CS1 (in words)” value on VLA-4 was “blocked completely”.

Source of the values: patent publication US6495525B1, “VLA-4 inhibitor: oMePUPA-V” (Biogen, Inc., priority 1998, dated 2002).
